The target of assay [1] is T1, F508delCFTR (Homo sapiens, UniProt P13569, DEL508-508).
T1 construct: expressed in transfected cells; host or cells: CFBE41o- human lung-derived epithelial cells (CFBE41o-F508delCFTR-HRP), doxycycline-inducible
The experiment in a line: Cell Surface Expression-Horse Radish Peroxidase (CSE-HRP) assay, test compound with co-corrector.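 As to Maximum % activity (with co-corrector): percent of 2 µM positive control corrector over DMSO; co-corrector is that same compound.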 The class given is cell-based. The settings on record: for Maximum % activity (with co-corrector): maximum at any tested concentration. The procedure, abridged: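 Surface-expression read-out: luminol luminescence from an HRP tag in the fourth exofacial loop of F508delCFTR, in doxycycline-induced (0.5 μg/mL, 72 h) CFBE41o- cells. Compound plus 2 μM co-corrector added for 18-24 h at 33° C., 8-point 3-fold series up to 20 μM. EC50 from a sigmoidal fit with variable Hill slope, normalised to positive control, triplicate plates.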

The target of assay [2] is T1, F508delCFTR. The assay can be described thus: Cell Surface Expression-Horse Radish Peroxidase (CSE-HRP) assay, test compound without co-corrector.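 As to Maximum % activity (without co-corrector): percent of on-plate 2 µM positive control corrector response over DMSO.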 The class given is cell-based. The settings on record: for EC50: test compound without co-corrector; for Emax / Maximum % activity (without co-corrector): maximum at any tested concentration, without co-corrector; for Emax: normalized to on-plate positive control; for Maximum % activity (without co-corrector): normalized to positive control. In a few lines:
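Compound without co-corrector was tested at eight 3-fold concentrations, top 20 μM, for 18-24 h at 33° C on doxycycline-induced (0.5 μg/mL, 72 h) CFBE41o- F508delCFTR-HRP cells. After DPBS washes, luminol luminescence gave % activity relative to on-plate positive control minus DMSO; EC50 came from triplicate-plate sigmoidal fitting.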

Setting [3] is: CSE-HRP assay, test compound with 2 μM co-corrector.
Where [4] appears, read: normalized to on-plate positive control, with 2 μM co-corrector.
Where [5] appears, read: normalized to positive control, with 2 μM co-corrector.

The results in this text go back to US20180244611A1, “Modulators of the Cystic Fibrosis Transmembrane Conductance Regulator Protein and Methods of Use” (AbbVie S.à.r.l., priority 2017, published 2018).

T1 sequence (P13569 with tags, fused parts or gaps DEL508-508): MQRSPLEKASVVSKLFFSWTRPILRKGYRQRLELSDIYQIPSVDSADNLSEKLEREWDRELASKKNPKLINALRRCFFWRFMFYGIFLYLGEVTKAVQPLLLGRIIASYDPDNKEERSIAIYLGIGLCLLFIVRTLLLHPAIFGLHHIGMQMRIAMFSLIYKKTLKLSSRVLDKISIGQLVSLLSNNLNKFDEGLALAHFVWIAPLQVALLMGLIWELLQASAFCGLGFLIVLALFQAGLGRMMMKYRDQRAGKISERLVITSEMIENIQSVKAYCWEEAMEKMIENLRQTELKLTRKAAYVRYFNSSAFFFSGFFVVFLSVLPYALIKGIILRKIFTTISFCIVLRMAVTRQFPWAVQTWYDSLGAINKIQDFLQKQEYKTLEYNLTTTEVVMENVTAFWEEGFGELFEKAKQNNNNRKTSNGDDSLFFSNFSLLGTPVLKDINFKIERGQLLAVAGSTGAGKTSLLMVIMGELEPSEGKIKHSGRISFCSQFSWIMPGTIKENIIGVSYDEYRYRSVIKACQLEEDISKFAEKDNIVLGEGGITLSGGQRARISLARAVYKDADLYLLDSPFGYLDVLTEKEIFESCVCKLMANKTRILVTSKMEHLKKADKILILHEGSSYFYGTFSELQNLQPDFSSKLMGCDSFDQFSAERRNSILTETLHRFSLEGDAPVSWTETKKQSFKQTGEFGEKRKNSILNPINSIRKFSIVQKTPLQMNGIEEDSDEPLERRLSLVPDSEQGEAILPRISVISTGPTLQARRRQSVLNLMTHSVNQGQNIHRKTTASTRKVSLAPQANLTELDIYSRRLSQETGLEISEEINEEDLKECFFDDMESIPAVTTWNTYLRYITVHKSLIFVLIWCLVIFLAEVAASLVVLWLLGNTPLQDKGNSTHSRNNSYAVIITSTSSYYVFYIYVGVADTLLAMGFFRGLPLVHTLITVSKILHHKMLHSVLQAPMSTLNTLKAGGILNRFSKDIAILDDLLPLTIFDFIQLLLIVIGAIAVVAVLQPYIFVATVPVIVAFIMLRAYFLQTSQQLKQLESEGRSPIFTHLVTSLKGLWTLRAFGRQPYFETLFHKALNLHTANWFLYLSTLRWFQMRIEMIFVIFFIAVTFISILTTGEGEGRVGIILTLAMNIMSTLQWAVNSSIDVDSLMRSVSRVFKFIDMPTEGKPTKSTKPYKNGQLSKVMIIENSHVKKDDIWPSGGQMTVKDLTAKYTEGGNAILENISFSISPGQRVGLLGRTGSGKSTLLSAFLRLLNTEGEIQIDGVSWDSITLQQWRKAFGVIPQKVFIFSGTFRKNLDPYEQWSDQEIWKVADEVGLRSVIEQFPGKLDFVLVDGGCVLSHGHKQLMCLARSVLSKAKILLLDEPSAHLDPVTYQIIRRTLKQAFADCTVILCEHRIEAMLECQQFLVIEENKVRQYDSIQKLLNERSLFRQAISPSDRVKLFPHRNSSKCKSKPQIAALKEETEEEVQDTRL

In general, EC50 refers to the concentration giving half of the maximal effect. Lower therefore signals a more potent agent. In general, Emax refers to the size of the effect at its maximum, as opposed to the concentration needed. For `COc1cccc2c1C(C(=O)NS(=O)(=O)c1cccc3ccccc13)CC2` (stereo not shown) [III-182], the EC50 in assay [1] (setting [3]) and in assay [2] (CSE-HRP assay) was less than 3 µM in each case. The “Maximum % activity (with co-corrector)” value in assay [1] (setting [4]) was “++ (≥150 and <350)”. The Emax in assay [2] is 50 to 150%.
In the case of `COc1ccc(C(=O)O)c2c1C(C(=O)NS(=O)(=O)c1cccc3ccccc13)CC2` (stereo not shown) [III-183], the concentration for a half-maximal effect (EC50) was 3 to 10 µM in assay [1] (setting [3]) and not below 10 µM in assay [2] (CSE-HRP assay). The “Maximum % activity (with co-corrector)” value in assay [1] (setting [4]) is “++ (≥150 and <350)”. Further, the Emax in assay [2] was less than 50%.
Consider `COC(=O)c1ccc(OC)c2c1CCC2C(=O)NS(=O)(=O)c1cccc2ccccc12` (stereo not shown) [III-184], for which, in assay [1] (setting [4]), the “Maximum % activity (with co-corrector)” value is “++ (≥150 and <350)”. In assay [2], this compound came in with a maximum response (Emax) of 50 to 150%.
`COc1ccc(CO)c2c1C(C(=O)NS(=O)(=O)c1cccc3ccccc13)CC2` (stereo not shown) [III-185]: the EC50 in assay [1] (setting [3]) and in assay [2] (CSE-HRP assay) was 3 to 10 µM each time. For the same compound, in assay [1] (setting [4]), the “Maximum % activity (with co-corrector)” value is “++ (≥150 and <350)”. The compound further showed an Emax in assay [2] of less than 50%.
In the case of `CNC(=O)c1ccc(OC)c2c1CCC2C(=O)NS(=O)(=O)c1cccc2ccccc12` (stereo not shown) [III-186], the EC50 in assay [1] (setting [3]) and in assay [2] (CSE-HRP assay) was not below 10 µM each time. Further, in assay [1] (setting [4]), the “Maximum % activity (with co-corrector)” value was “+ (<150)”. The Emax in assay [2] was less than 50%.
Turning to `COc1ccc(C(=O)N(C)C)c2c1C(C(=O)NS(=O)(=O)c1cccc3ccccc13)CC2` (stereo not shown) [III-187], the EC50 in assay [1] (setting [3]) and in assay [2] (CSE-HRP assay) was not below 10 µM throughout. Moreover, in assay [1] (setting [4]), the “Maximum % activity (with co-corrector)” value is “+ (<150)”. This compound also came in with an Emax in assay [2] of less than 50%.
Consider `COc1ccc(CN2CCCC2)c2c1C(C(=O)NS(=O)(=O)c1cccc3ccccc13)CC2` (stereo not shown) [III-188], for which the EC50 was 3 to 10 µM in assay [1] (setting [3]) and not below 10 µM in assay [2] (CSE-HRP assay). The “Maximum % activity (with co-corrector)” value in assay [1] (setting [4]) is “+ (<150)”. The compound also came in with an Emax in assay [2] of less than 50%.
For the compound “(1R)-4-cyclobutyl-7-methoxy-N-(1,2,3,4-tetrahydroquinoline-8-sulfonyl)-2,3-dihydro-1H-indene-1-carboxamide [Example I-131]”, in assay [1] (setting [5]), the “Maximum % activity (with co-corrector)” value is reported as “+++ (≥350)”. Also, the EC50 in assay [1] (with 2 μM co-corrector) and in assay [2] was less than 3 µM in each case. In addition, the “Maximum % activity (without co-corrector)” value in assay [2] is “+++ (≥150)”.
In the case of “(1S)-7-chloro-1-methyl-N-(naphthalene-1-sulfonyl)-2,3-dihydro-1H-indene-1-carboxamide [Example I-26]”, the “Maximum % activity (with co-corrector)” value in assay [1] (setting [5]) is listed as “+++ (≥350)”. The compound also displayed a concentration giving a half-maximal response (EC50) in assay [1] (with 2 μM co-corrector) of less than 3 µM. In addition, in assay [2], the “Maximum % activity (without co-corrector)” value is “++ (≥50 and <150)”; the EC50 is less than 3 µM.
